Laboratory results: ChEMBL document CHEMBL1135096, “4-Aryl/cycloalkyl-5-phenyloxazole derivatives as selective COX-2 inhibitors” (Bioorg Med Chem Lett, 2002)

Legend:
[1] = target: Prostaglandin G/H synthase 1 (Homo sapiens, UniProt P23219)
Description: In vitro inhibitory activity towards human platelet recombinant Prostaglandin G/H synthase 1

[2] = target: T1, Prostaglandin G/H synthase 2 (Homo sapiens, UniProt P35354)
T1 sequence (P35354 whole entry): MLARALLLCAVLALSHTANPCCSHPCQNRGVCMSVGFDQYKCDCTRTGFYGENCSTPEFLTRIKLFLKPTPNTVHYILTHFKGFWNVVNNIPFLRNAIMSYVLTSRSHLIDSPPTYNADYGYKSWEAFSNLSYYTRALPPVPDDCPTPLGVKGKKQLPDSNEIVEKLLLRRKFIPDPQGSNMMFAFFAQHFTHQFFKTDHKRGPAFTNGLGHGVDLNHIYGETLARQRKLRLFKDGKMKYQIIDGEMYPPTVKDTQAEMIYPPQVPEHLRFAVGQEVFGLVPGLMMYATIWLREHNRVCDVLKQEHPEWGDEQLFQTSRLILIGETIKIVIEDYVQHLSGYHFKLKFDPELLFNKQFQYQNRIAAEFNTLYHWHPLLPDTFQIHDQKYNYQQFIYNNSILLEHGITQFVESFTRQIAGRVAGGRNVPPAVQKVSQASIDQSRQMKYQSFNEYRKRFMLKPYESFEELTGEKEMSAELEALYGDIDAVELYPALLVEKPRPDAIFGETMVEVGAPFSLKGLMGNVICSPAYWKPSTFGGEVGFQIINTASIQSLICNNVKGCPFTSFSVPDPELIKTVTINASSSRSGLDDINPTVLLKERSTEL
Description: In vitro inhibitory activity towards human recombinant Prostaglandin G/H synthase 2 enzyme

Chain of Prostaglandin G/H synthase 1 (P23219 whole entry): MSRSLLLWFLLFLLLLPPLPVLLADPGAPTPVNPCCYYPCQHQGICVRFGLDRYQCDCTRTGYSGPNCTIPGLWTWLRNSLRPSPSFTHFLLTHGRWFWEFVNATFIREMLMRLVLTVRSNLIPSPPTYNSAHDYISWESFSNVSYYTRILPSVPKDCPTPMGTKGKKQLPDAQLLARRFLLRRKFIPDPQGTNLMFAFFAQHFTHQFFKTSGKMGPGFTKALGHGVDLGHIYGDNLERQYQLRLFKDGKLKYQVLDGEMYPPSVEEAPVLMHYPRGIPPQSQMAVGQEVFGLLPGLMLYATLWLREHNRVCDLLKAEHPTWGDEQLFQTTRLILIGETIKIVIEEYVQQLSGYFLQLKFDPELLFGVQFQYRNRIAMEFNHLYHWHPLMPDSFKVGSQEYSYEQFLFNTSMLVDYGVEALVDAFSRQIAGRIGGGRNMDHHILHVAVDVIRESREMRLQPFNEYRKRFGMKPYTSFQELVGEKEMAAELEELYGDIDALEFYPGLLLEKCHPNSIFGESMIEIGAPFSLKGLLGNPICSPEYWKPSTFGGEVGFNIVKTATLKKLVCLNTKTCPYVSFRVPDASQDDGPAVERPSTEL

IC50 [1] | IC50 [2] | SMILES
42 µM | 0.07 µM | Cc1nc(-c2ccc(F)cc2)c(-c2ccc(S(C)(=O)=O)cc2)o1
> 100 µM | 0.14 µM | CCc1ccc(-c2nc(C)oc2-c2ccc(S(C)(=O)=O)cc2)s1
> 100 µM | 2.1 µM | Cc1nc(-c2ccc(S(C)(=O)=O)cc2)c(-c2ccc(F)cc2)o1
93 µM |  | Cc1nc(-c2ccc(S(C)(=O)=O)cc2)c(-c2ccc(Cl)s2)o1
> 100 µM |  | Cc1nc(C2CCCCC2)c(-c2ccc(S(C)(=O)=O)cc2)o1

More lines, now with the values behind:

SMILES | IC50 [1] | IC50 [2]
Cc1nc(C2CCCC2)c(-c2ccc(S(C)(=O)=O)cc2)o1 | > 100 µM | 18 µM
CS(=O)(=O)c1ccc(-c2oc(-c3ccccc3)nc2C2CCCCC2)cc1 | > 100 µM | > 100 µM
Cc1nc(-c2ccccc2)c(-c2ccc(S(C)(=O)=O)cc2)o1 | > 100 µM | 0.09 µM
Cc1nc(-c2ccc(F)cc2)c(-c2ccc(S(N)(=O)=O)cc2)o1 | 4.7 µM | 0.024 µM
CCS(=O)(=O)c1ccc(-c2oc(C)nc2-c2ccc(F)cc2)cc1 | > 100 µM | 38 µM
CCc1nc(C2CCCCC2)c(-c2ccc(S(C)(=O)=O)cc2)o1 | 60 µM | 0.27 µM
Cc1nc(C2CCCCC2)c(-c2ccc(S(N)(=O)=O)cc2)o1 | 47.5 µM | 
CNS(=O)(=O)c1ccc(-c2oc(C)nc2C2CCCCC2)cc1 | > 100 µM | 3.1 µM
Cc1nc(C2CCCCCC2)c(-c2ccc(S(C)(=O)=O)cc2)o1 | > 100 µM | 
